Laboratory results reported in BigSolDB 2.1.

| Structure (SMILES) | solubility (mole fraction) (in n-hexane, 293.2 K) | solubility (mole fraction) (in n-hexane, 298.2 K) | solubility (mole fraction) (in n-hexane, 303.2 K) | solubility (mole fraction) (in n-hexane, 310.2 K) | solubility (mole fraction) (in n-hexane, 315.2 K) | solubility (mole fraction) (in n-octanol, 293.2 K) | solubility (mole fraction) (in n-octanol, 298.2 K) | solubility (mole fraction) (in n-octanol, 303.2 K) | solubility (mole fraction) (in n-octanol, 310.2 K) | solubility (mole fraction) (in n-octanol, 315.2 K) | solubility (mole fraction) (in n-octanol, 288.2 K) | solubility (mole fraction) (in n-octanol, 290.7 K) | solubility (mole fraction) (in n-octanol, 295.7 K) |
| --- | --- | --- | --- | --- | --- | --- | --- | --- | --- | --- | --- | --- | --- |
| CC(O)Cc1nsc(Nc2cccc(Cl)c2)n1 (stereo not given) | 5.5e-06 | 9e-06 | 1.32e-05 | 2.4e-05 | 3.62e-05 | 0.0546 | 0.0633 | 0.0729 | 0.0885 | 0.101 |  |  |  |
| Cc1ccc(Cl)cc1Nc1nc(CC(C)O)ns1 (stereo not given) | 2.95e-05 | 3.79e-05 | 4.73e-05 | 5.55e-05 | 6.64e-05 | 0.0488 | 0.054 |  |  |  | 0.0441 | 0.0465 | 0.0515 |
| Cc1cccc(Nc2nc(CC(C)O)ns2)c1 (stereo not given) | 2.49e-05 | 3.4e-05 | 4.59e-05 | 5.6e-05 | 7.05e-05 | 0.0266 | 0.0355 | 0.038 | 0.0501 | 0.0558 |  |  |  |
| Cc1ccc(Nc2nc(CC(C)O)ns2)cc1Cl (stereo not given) | 3.2e-06 | 4.8e-06 | 6.2e-06 | 9.2e-06 | 1.28e-05 | 0.0121 | 0.0134 | 0.0166 | 0.021 | 0.0251 |  |  |  |

More lines, now with the values ahead:

| solubility (mole fraction) (in n-hexane, 293.2 K) | solubility (mole fraction) (in n-hexane, 298.2 K) | solubility (mole fraction) (in n-hexane, 303.2 K) | solubility (mole fraction) (in n-hexane, 310.2 K) | solubility (mole fraction) (in n-hexane, 315.2 K) | solubility (mole fraction) (in n-octanol, 293.2 K) | solubility (mole fraction) (in n-octanol, 298.2 K) | solubility (mole fraction) (in n-octanol, 303.2 K) | solubility (mole fraction) (in n-octanol, 310.2 K) | solubility (mole fraction) (in n-octanol, 315.2 K) | solubility (mole fraction) (in n-octanol, 288.2 K) | solubility (mole fraction) (in n-octanol, 290.7 K) | solubility (mole fraction) (in n-octanol, 295.7 K) | Structure (SMILES) |
| --- | --- | --- | --- | --- | --- | --- | --- | --- | --- | --- | --- | --- | --- |
| 3.5e-06 | 5.2e-06 | 6.9e-06 | 1.13e-05 | 1.73e-05 | 0.0187 | 0.0218 | 0.0245 | 0.029 | 0.035 |  |  |  | CC(O)Cc1nsc(Nc2ccc(Cl)cc2)n1 (stereo not given) |
| 9.2e-06 | 1.51e-05 | 2.02e-05 | 3.51e-05 | 4.8e-05 | 0.0466 | 0.0627 | 0.0694 | 0.101 | 0.121 |  |  |  | COc1ccc(Nc2nc(CC(C)O)ns2)cc1 (stereo not given) |
